Reference: paper PMC4660582, “Cyclic thrombospondin-1 mimetics: grafting of a thrombospondin sequence into circular disulfide-rich frameworks to inhibit endothelial cell migration” (Bioscience Reports, 2015)
Where a SMILES comes first, the peptide text is derived from it. Bridges are numbered along the chain shown (N, C = ends). [ ]: non-standard residue; d: D form.

Columns and labels:
[1] = Stability assay in human serum; format: in vitro ADME; details: initial 300 μM; for remaining at 24 h, 300 μM: male, human, human serum, over a 24-h period, read-out: peptide remained in human serum
Description: All peptides were tested on human serum from male AB plasma (Sigma–Aldrich) at an initial concentration of 300 μM. Peptide incubation time points were 0, 2, 4, 8, 16 and 24 h. Samples were prepared according to previously described methods. Briefly, 90 μL of supernatant was taken at each time point and chromatographed on a 0.3 mL/min Phenomenex column using a linear 1%/min gradient of 0–50% solvent B on an analytical reverse-phase HPLC (Agilent). The elution times for all peptides were determined by the serum control at 0 h. The stability of each peptide for each time point was calculated as the height of the serum-treated peptide peak at 215 nm as percentage of the height of the 0-h serum-treated control. Experiments were done in triplicate.

Human red blood cells = experiment: Hemolytic assay; format: cell-based; details: peptides 0.01–50 μM; melittin positive control from 20 μM
Description: Human red blood cells were used to measure the hemolysis of all peptides, with melittin used as a positive control. Peptides concentrations were 50 μM, 25 μM, 10 μM, 5 μM, 1 μM, 0.5 μM, 0.1 μM and 0.01 μM. Melittin was tested at eight concentrations, with two-fold dilution from a concentration of 20 μM. Sample absorbance was measured at 415 nm using a BioTek PowerWave XS instrument, as described previously. Experiments were done in triplicate.

[2] = test system: PC3 cells (prostate cancer cells); experiment: Cell proliferation assay (MTT, 72 h); format: cell-based; details: PC-3; 72-h period
Description: (§1) All cells were maintained using the media conditions described above, and passages 2–10 were used for all cell lines. Cell numbers of 2.5×10^3 cells/well (100 μL) were used for both HUVECs and HMVECs, and 1.5×10^3 cells/well (100 μL) were used for other cell lines in this assay. All cells were allowed to attach for 24 h after plating. Cells were treated with fresh media the next day, before the addition of peptides and then incubated for 72 h. Similar peptide concentrations to those mentioned above (in the cell cytotoxicity section) were used. 0.1% (v/v) Triton X-100 (10 μL) was used as a positive control. After 72 h of incubation, MTT and DMSO were added and analysed using the same method as described above.

[3] = test system: HT-29 (colon cancer cells); experiment: Cell proliferation assay (MTT, 72 h); format: cell-based; details: 72-h period
Description: as §1

[4] = test system: matriptase over-expressed PC-3 cell line; set-up: method as in PMID 24696092; details: cited from earlier work
HMVECs = test system: HMVECs; set-up: method as in PMID 15716381; details: at 5 nM; cited from earlier work
HUVECs = test system: HUVECs; set-up: method as in PMID 15716381; details: at 16 nM; cited from earlier work

CC[C@@H](C)[C@H]1NC(=O)[C@H](C(C)C)NC(=O)CNC(=O)[C@@H]2CSSC[C@@H]3NC(=O)[C@H](CC(=O)O)NC(=O)[C@H](CO)NC(=O)[C@H](CC(=O)O)NC(=O)[C@H](CCCNC(=N)N)NC(=O)[C@H](CCCNC(=N)N)NC(=O)[C@@H]4CSSC[C@H](NC(=O)[C@H]([C@@H](C)CC)NC(=O)[C@H](CSSC[C@H](NC(=O)[C@H](CCCNC(=N)N)NC(=O)[C@H]([C@@H](C)CC)NC(=O)[C@H](CCCNC(=N)N)NC(=O)[C@H]([C@@H](C)O)NC1=O)C(=O)N1CCC[C@H]1C(=O)N[C@@H](CCCCN)C(=O)N[C@@H]([C@@H](C)CC)C(=O)N[C@@H](CC(C)C)C(=O)N[C@@H](CCCCN)C(=O)N[C@@H](CCCCN)C(=O)N4)NC(=O)[C@H](C)NC(=O)CNC(=O)[C@@H]1CCCN1C3=O)C(=O)N[C@@H](CCCNC(=N)N)C(=O)NCC(=O)N[C@@H](CC(N)=O)C(=O)NCC(=O)N[C@@H](Cc1ccc(O)cc1)C(=O)N2 [MCo-TSP-1] (cyclo(ACICRGNGYCGV[dI]TRIRCPKILKKCRRDSDCPG); disulfide 2-18, 4-25, 10-31)
remaining at 24 h, 300 μM [1]: > 50%

CC[C@@H](C)[C@H]1NC(=O)[C@H](C(C)C)NC(=O)CNC(=O)[C@@H]2CSSC[C@H](NC(=O)[C@H](CCCNC(=N)N)NC(=O)[C@H]([C@@H](C)CC)NC(=O)[C@H](CCCNC(=N)N)NC(=O)[C@H]([C@@H](C)O)NC1=O)C(=O)N[C@@H]([C@@H](C)O)C(=O)N[C@@H](CCCCN)C(=O)N[C@@H](CO)C(=O)N[C@@H]([C@@H](C)CC)C(=O)N1CCC[C@H]1C(=O)N1CCC[C@H]1C(=O)N[C@@H]([C@@H](C)CC)C(=O)N2 [SFTI-TSP-1, CTKSIPPICGViTRIR]
remaining at 24 h, 300 μM [1]: > 50%

CC[C@@H](C)[C@@H](NC(=O)[C@@H](NC(=O)CN)C(C)C)C(=O)N[C@H](C(=O)N[C@@H](CCCNC(=N)N)C(=O)N[C@H](C(=O)N[C@@H](CCCNC(=N)N)C(=O)O)[C@@H](C)CC)[C@@H](C)O [linear TSP-1 heptapeptide, GViTRIR] (H-GV[dI]TRIR-OH)
time within which degraded in human serum [1]: ≤ 24 h

CC[C@H](C)[C@H](NC(=O)CN)C(=O)NCC(=O)N[C@@H](C)C(=O)N[C@H](C(=O)N[C@@H](CC(C)C)C(=O)N[C@@H](CCCCN)C(=O)N[C@H](C(=O)N[C@@H](CC(C)C)C(=O)N[C@H](C(=O)N[C@H](C(=O)NCC(=O)N[C@@H](CC(C)C)C(=O)N1CCC[C@H]1C(=O)N[C@@H](C)C(=O)N[C@@H](CC(C)C)C(=O)N[C@H](C(=O)N[C@@H](CO)C(=O)N[C@@H](Cc1c[nH]c2ccccc12)C(=O)N[C@H](C(=O)N[C@@H](CCCCN)C(=O)N[C@@H](CCCNC(=N)N)C(=O)N[C@@H](CCCCN)C(=O)N[C@@H](CCCNC(=N)N)C(=O)N[C@@H](CCC(N)=O)C(=O)N[C@@H](CCC(N)=O)C(N)=O)[C@@H](C)CC)[C@@H](C)CC)[C@@H](C)O)[C@@H](C)O)C(C)C)C(C)C [melittin]
haemolysis of human red blood cells (Human red blood cells): highly haemolytic

Momordica cochinchinensis trypsin inhibitor-II [MCoTI-II]
anti-proliferative effect [2]: minor anti-proliferative effects | anti-proliferative effect [3]: minor anti-proliferative effects | effect on invasive cell migration [4]: inhibited invasive cell migration

sunflower trypsin inhibitor-1 [SFTI-1]
anti-proliferative effect [2]: minor anti-proliferative effects | anti-proliferative effect [3]: minor anti-proliferative effects

thrombospondin-1 type-1 repeats [TSR]
inhibition on HMVECs (migration) (HMVECs): 35% | inhibition on HUVECs (migration) (HUVECs): 60%
